Data taken from paper PMC11277489, “Novel Piperazine Derivatives of Vindoline as Anticancer Agents” (International Journal of Molecular Sciences, 2024).

Legend:
COLO 205 = assay: NCI60 one-dose screen (10 μM), Colon Cancer; format: cell-based, human; details: Homo sapiens; 10 μM; COLO 205, Colon Cancer; read-out: Growth percent rate
SNB-19 = assay: NCI60 one-dose screen (10 μM), CNS Cancer; format: cell-based; details: Homo sapiens; 10 μM; SNB-19, CNS Cancer; read-out: Growth percent rate
A498 = assay: NCI60 one-dose screen (10 μM), Renal Cancer; format: cell-based; details: Homo sapiens; 10 μM; A498, Renal Cancer; read-out: Growth percent rate
OVCAR-4 = assay: NCI60 one-dose screen (10 μM), Ovarian Cancer; format: cell-based; details: Homo sapiens; 10 μM; OVCAR-4, Ovarian Cancer; read-out: Growth percent rate
HOP-62 = assay: NCI60 one-dose screen (10 μM), Non-small Cell Lung Cancer; format: cell-based; details: Homo sapiens; 10 μM; HOP-62, Non-small Cell Lung Cancer; read-out: Growth percent rate
NCI-H522 = assay: as above; format: cell-based; details: Homo sapiens; 10 μM; NCI-H522, Non-small Cell Lung Cancer; read-out: Growth percent rate
HCT-116 = assay: NCI60 one-dose screen (10 μM), Colon Cancer; format: cell-based; details: Homo sapiens; 10 μM; HCT-116, Colon Cancer; read-out: Growth percent rate
SK-MEL-5 = assay: NCI60 one-dose screen (10 μM), Melanoma; format: cell-based, human; details: Homo sapiens; 10 μM; SK-MEL-5, Melanoma; read-out: Growth percent rate
MDA-MB-435 = assay: NCI60 one-dose screen (10 μM), Melanoma; format: cell-based; details: Homo sapiens; 10 μM; MDA-MB-435, Melanoma; read-out: Growth percent rate
NCI-H322M = assay: NCI60 one-dose screen (10 μM), Non-small Cell Lung Cancer; format: cell-based; details: Homo sapiens, 10 μM, Non-small Cell Lung Cancer, read-out: Growth percent rate
MOLT-4 = assay: NCI60 one-dose screen (10 μM), Leukemia; format: cell-based, human; details: Homo sapiens; 10 μM; MOLT-4, Leukemia; read-out: Growth percent rate
RXF 393 = assay: NCI60 one-dose screen (10 μM), Renal Cancer; format: cell-based, human; details: Homo sapiens; 10 μM; RXF 393, Renal Cancer; read-out: Growth percent rate
M14 = assay: NCI60 one-dose screen (10 μM), Melanoma; format: cell-based; details: Homo sapiens; 10 μM; M14, Melanoma; read-out: Growth percent rate
A549/ATCC = assay: NCI60 one-dose screen (10 μM), Non-small Cell Lung Cancer; format: cell-based; details: Homo sapiens; 10 μM; A549/ATCC, Non-small Cell Lung Cancer; read-out: Growth percent rate
EKVX = assay: as above; format: cell-based; details: Homo sapiens, 10 μM, Non-small Cell Lung Cancer, read-out: Growth percent rate
CAKI-1 = assay: NCI60 one-dose screen (10 μM), Renal Cancer; format: cell-based; details: Homo sapiens; 10 μM; CAKI-1, Renal Cancer; read-out: Growth percent rate
NCI-H23 = assay: NCI60 one-dose screen (10 μM), Non-small Cell Lung Cancer; format: cell-based; details: Homo sapiens; 10 μM; NCI-H23, Non-small Cell Lung Cancer; read-out: Growth percent rate
786–0 = assay: NCI60 one-dose screen (10 μM), Renal Cancer; format: cell-based; details: Homo sapiens; 10 μM; 786-0, Renal Cancer; read-out: Growth percent rate
IGROV1 = assay: NCI60 one-dose screen (10 μM), Ovarian Cancer; format: cell-based; details: Homo sapiens, IGROV-1; 10 μM; IGROV1, Ovarian Cancer; read-out: Growth percent rate
TK-10 = assay: NCI60 one-dose screen (10 μM), Renal Cancer; format: cell-based; details: Homo sapiens; 10 μM; TK-10, Renal Cancer; read-out: Growth percent rate
SF-268 = assay: NCI60 one-dose screen (10 μM), CNS Cancer; format: cell-based; details: Homo sapiens; 10 μM; SF-268, CNS Cancer; read-out: Growth percent rate
SF-539 = assay: NCI60 one-dose screen (10 μM), CNS Cancer; format: cell-based, human; details: Homo sapiens; 10 μM; SF-539, CNS Cancer; read-out: Growth percent rate
NCI-H460 = assay: NCI60 one-dose screen (10 μM), Non-small Cell Lung Cancer; format: cell-based; details: Homo sapiens; 10 μM; NCI-H460, Non-small Cell Lung Cancer; read-out: Growth percent rate
OVCAR-8 = assay: NCI60 one-dose screen (10 μM), Ovarian Cancer; format: cell-based; details: Homo sapiens; 10 μM; OVCAR-8, Ovarian Cancer; read-out: Growth percent rate
ACHN = assay: NCI60 one-dose screen (10 μM), Renal Cancer; format: cell-based; details: Homo sapiens, 10 μM, Renal Cancer, read-out: Growth percent rate
LOX IMVI = assay: NCI60 one-dose screen (10 μM), Melanoma; format: cell-based, human; details: Homo sapiens; 10 μM; LOX IMVI, Melanoma; read-out: Growth percent rate
SN12C = assay: NCI60 one-dose screen (10 μM), Renal Cancer; format: cell-based; details: Homo sapiens, 10 μM, Renal Cancer, read-out: Growth percent rate
UACC-257 = assay: NCI60 one-dose screen (10 μM), Melanoma; format: cell-based; details: Homo sapiens; 10 μM; UACC-257, Melanoma; read-out: Growth percent rate
HCC-2998 = assay: NCI60 one-dose screen (10 μM), Colon Cancer; format: cell-based; details: Homo sapiens; 10 μM; HCC-2998, Colon Cancer; read-out: Growth percent rate
SW-620 = assay: NCI60 one-dose screen (10 μM), Colon Cancer; format: cell-based; details: Homo sapiens; 10 μM; SW-620, Colon Cancer; read-out: Growth percent rate
HL-60(TB) = assay: NCI60 one-dose screen (10 μM), Leukemia; format: cell-based; details: Homo sapiens; 10 μM; HL-60(TB), Leukemia; read-out: Growth percent rate
U251 = assay: NCI60 one-dose screen (10 μM), CNS Cancer; format: cell-based; details: Homo sapiens, U-251; 10 μM; U251, CNS Cancer; read-out: Growth percent rate
HS 578T = assay: NCI60 one-dose screen (10 μM), Breast Cancer; format: cell-based; details: Homo sapiens; 10 μM; HS 578T, Breast Cancer; read-out: Growth percent rate
MALME-3M = assay: NCI60 one-dose screen (10 μM), Melanoma; format: cell-based; details: Homo sapiens; 10 μM; MALME-3M, Melanoma; read-out: Growth percent rate
[1] = test system: 60 human tumor cell lines (NCI60); assay: NCI60 one-dose screen (10 μM), whole panel; format: cell-based; details: for activity at 10 µM: mean over 60 human cancer cell lines, read-out: Growth percent rate, Mean
MCF7 = assay: NCI60 one-dose screen (10 μM), Breast Cancer; format: cell-based; details: Homo sapiens; 10 μM; MCF7, Breast Cancer; read-out: Growth percent rate
K-562 = assay: NCI60 one-dose screen (10 μM), Leukemia; format: cell-based; details: Homo sapiens, K562; 10 μM; K-562, Leukemia; read-out: Growth percent rate
RPMI-8226 = assay: NCI60 one-dose screen (10 μM), Leukemia; format: cell-based; details: Homo sapiens; 10 μM; RPMI-8226, Leukemia; read-out: Growth percent rate
SF-295 = assay: NCI60 one-dose screen (10 μM), CNS Cancer; format: cell-based; details: Homo sapiens; 10 μM; SF-295, CNS Cancer; read-out: Growth percent rate
HT29 = assay: NCI60 one-dose screen (10 μM), Colon Cancer; format: cell-based; details: Homo sapiens, HT-29; 10 μM; HT29, Colon Cancer; read-out: Growth percent rate
HCT-15 = assay: NCI60 one-dose screen (10 μM), Colon Cancer; format: cell-based; details: Homo sapiens; 10 μM; HCT-15, Colon Cancer; read-out: Growth percent rate
SK-MEL-28 = assay: NCI60 one-dose screen (10 μM), Melanoma; format: cell-based; details: Homo sapiens; 10 μM; SK-MEL-28, Melanoma; read-out: Growth percent rate

In the case of `CCC12C=CCN3CCC4(c5cc(NC(=O)CN6CCN(C(c7ccc(F)cc7)c7ccc(F)cc7)CC6)c(OC)cc5N(C)C4C(O)(C(=O)OC)C1OC(C)=O)C32` (stereo not shown) [Compound 20], the activity at 10 µM (COLO 205) is reported as -60.5%, the activity at 10 µM (SNB-19) is reported as 21.5% and the activity at 10 µM (A498) is reported as 35.6%. It also gave an activity at 10 µM (OVCAR-4) of 31.4%, an activity at 10 µM (HOP-62) of 60.3% and an activity at 10 µM (NCI-H522) of 11%. The activity at 10 µM (HCT-116) was 27.9%, the activity at 10 µM (SK-MEL-5) was -76.2% and the activity at 10 µM (MDA-MB-435) was 22.2%. For the same compound, the activity at 10 µM (NCI-H322M) was 42.8%, the activity at 10 µM (MOLT-4) was 1.17% and the activity at 10 µM (RXF 393) was -44%. It also gave an activity at 10 µM (M14) of 49.7%, an activity at 10 µM (A549/ATCC) of 31% and an activity at 10 µM (EKVX) of 16.2%. The activity at 10 µM (CAKI-1) was 27.7%, the activity at 10 µM (NCI-H23) was 38% and the activity at 10 µM (786–0) was 34%. The activity at 10 µM (IGROV1) was 44.9%, the activity at 10 µM (TK-10) was 37.6% and the activity at 10 µM (SF-268) was 28.1%. The activity at 10 µM (SF-539) was -61.1%, the activity at 10 µM (NCI-H460) was 17.3% and the activity at 10 µM (OVCAR-8) was 45.6%. It also gave an activity at 10 µM (ACHN) of 11.4%, an activity at 10 µM (LOX IMVI) of -61% and an activity at 10 µM (SN12C) of 26.9%. For the same compound, the activity at 10 µM (UACC-257) was 37.9%, the activity at 10 µM (HCC-2998) was 3.93% and the activity at 10 µM (SW-620) was 34.2%. It also gave an activity at 10 µM (HL-60(TB)) of -10.8%, an activity at 10 µM (U251) of 31.7% and an activity at 10 µM (HS 578T) of 15.5%. The activity at 10 µM (MALME-3M) was 0%, the “antiproliferative effect (in words)” value ([1]; 10 μM one-dose, NCI60) was “moderate antiproliferative activity on some colon, CNS, and melanoma cell lines” and the activity at 10 µM [1] was 12.2%. For the same compound, the activity at 10 µM (MCF7) was 5.47%, the activity at 10 µM (K-562) was 17% and the activity at 10 µM (RPMI-8226) was -2.68%. The activity at 10 µM (SF-295) was 13.8%, the activity at 10 µM (HT29) was -40.8% and the activity at 10 µM (HCT-15) was 18.3%. The activity at 10 µM (SK-MEL-28) was 51.2%.
In the case of `CCC12C=CCN3CCC4(c5cc(NC(=O)CN6CCN(C(=O)c7ccco7)CC6)c(OC)cc5N(C)C4C(O)(C(=O)OC)C1OC(C)=O)C32` (stereo not shown) [Compound 21], the activity at 10 µM (COLO 205) is reported as 120%, the activity at 10 µM (SNB-19) is reported as 96.2% and the activity at 10 µM (A498) is reported as 104%. The activity at 10 µM (OVCAR-4) was 108%, the activity at 10 µM (HOP-62) was 100% and the activity at 10 µM (NCI-H522) was 98.2%. For the same compound, the activity at 10 µM (HCT-116) was 108%, the activity at 10 µM (SK-MEL-5) was 105% and the activity at 10 µM (MDA-MB-435) was 104%. For the same compound, the activity at 10 µM (NCI-H322M) was 110%, the activity at 10 µM (MOLT-4) was 101% and the activity at 10 µM (RXF 393) was 133%. For the same compound, the activity at 10 µM (M14) was 110%, the activity at 10 µM (A549/ATCC) was 101% and the activity at 10 µM (EKVX) was 99.2%. For the same compound, the activity at 10 µM (CAKI-1) was 97.5%, the activity at 10 µM (NCI-H23) was 106% and the activity at 10 µM (786–0) was 104%. The activity at 10 µM (IGROV1) was 127%, the activity at 10 µM (TK-10) was 109% and the activity at 10 µM (SF-268) was 106%. It also gave an activity at 10 µM (SF-539) of 114%, an activity at 10 µM (NCI-H460) of 108% and an activity at 10 µM (OVCAR-8) of 101%. It also gave an activity at 10 µM (ACHN) of 109%, an activity at 10 µM (LOX IMVI) of 98.5% and an activity at 10 µM (SN12C) of 107%. It also gave an activity at 10 µM (UACC-257) of 106%, an activity at 10 µM (HCC-2998) of 126% and an activity at 10 µM (SW-620) of 113%. For the same compound, the activity at 10 µM (HL-60(TB)) was 114%, the activity at 10 µM (U251) was 118% and the activity at 10 µM (HS 578T) was 121%. For the same compound, the activity at 10 µM (MALME-3M) was 104%, the activity at 10 µM [1] was 108% and the activity at 10 µM (MCF7) was 98.3%. For the same compound, the activity at 10 µM (K-562) was 108%, the activity at 10 µM (RPMI-8226) was 103% and the activity at 10 µM (SF-295) was 110%. It also gave an activity at 10 µM (HT29) of 109%, an activity at 10 µM (HCT-15) of 107% and an activity at 10 µM (SK-MEL-28) of 126%.
